Tested on: male Sprague-Dawley rats (ca. 300 g) rendered diabetic by streptozotocin
Experiment: Biological activity and pharmacodynamics (blood glucose over time) after subcutaneous injection in diabetic rats
Format: in vivo, rat
Conditions: premixed clear solution of SCI-A and SCI-B, unbuffered, pH 4.0, FIGS. 8-10
Protocol: FIG. 7 is a graph showing blood glucose levels over time for diabetic rats (time 0 blood glucose of 375±20 mg/dl) injected subcutaneously with indicated analogue/300 g body weight.
FIG. 8 is a graph showing blood glucose levels over time for diabetic rats (time 0 blood glucose of 350-400 [±20 mg/dl]) injected subcutaneously with 1 unit of the indicated analog/300 g body weight. ( ? ) diluent control; (●) an SCI-A (SEQ ID NO: 5); (●) an example of an SCI-B (SEQ ID NO: 6) as formulated at neutral pH; and (♦) equimolar premixed clear solution of this SCI-A and this specific SCI-B as formulated in soluble form in an unbuffered solution at pH 4.0. Respective doses: 20 μg of each protein per 300 gram rat (singly); 20 μg and 20 μg in the case of the premixed solution to a total [SCI-A+SCI-B] combined dose of 40 μg.
FIG. 9 is a graph showing blood glucose levels over time for diabetic rats (time 0 blood glucose of 400±20 mg/dl) injected subcutaneously with indicated analogue/300 g body weight. […] Respective doses: 0.75 units SCI-A, 0.25 units SCI-B; and premixture of 0.75 units SCI-A and 0.25 units SCI-B.
FIG. 10 is a graph showing blood glucose levels over time for diabetic rats (time 0 blood glucose of 385±20 mg/dl) injected subcutaneously with indicated analogue/300 g body weight. […] Respective doses: 0.75 units SCI-A, 0.25 units SCI-B; and premixture of 0.75 units SCI-A and 0.25 units SCI-B.
Biological activity and pharmacodynamics were tested in male Sprague-Dawley rats (ca. 300 g) rendered diabetic by streptozotocin (FIG. 7).
Each of the three SCI-B analogues contained a six-residue C domain and an A-domain substitution known in the art to enhance stability and receptor-binding affinity (HisA8). The first SCI-B (SEQ ID NO: 6; FIG. 8) contained C domain sequence EEGPRR (positions 31-36). This analogue also contained insulin-moiety substitutions GluA14 and GluB29. The second example of an SCI-B (SEQ ID NO: 7; FIG. 9) contained C domain sequence EAAAAA (positions 31-36) and insulin-moiety substitutions GluA14, AspB28 and ProB29. […]

Row | Substance | effect of premixed SCI-A (SEQ ID NO: 5) on the rapid initial phase of insulin action of the SCI-B component
1 | SEQ ID NO: 8: single-chain insulin analogue SCI-B, C domain EAAARA, substitutions GluA14, AspB28 and ProB29 (FVNQHLCGSHLVEALYLVCGERGFFYTDPTEAAARAGIVEQCCTSICSLEQLENYCN) | did not blunt or prevent the premixed SCI-B component from directing a rapid initial phase of insulin action
2 | SEQ ID NO: 6: single-chain insulin analogue SCI-B, C domain EEGPRR, substitutions GluA14 and GluB29; rapid-acting component (FVNQHLCGSHLVEALYLVCGERGFFYTPETEEGPRRGIVEQCCTSICSLEQLENYCN) | did not blunt or prevent the premixed SCI-B component from directing a rapid initial phase of insulin action
3 | SEQ ID NO: 7: single-chain insulin analogue SCI-B, C domain EAAAAA, substitutions GluA14, AspB28 and ProB29 (FVNQHLCGSHLVEALYLVCGERGFFYTDPTEAAAAAGIVEQCCTSICSLEQLENYCN) | did not blunt or prevent the premixed SCI-B component from directing a rapid initial phase of insulin action
